The values that follow come from paper PMC12284618 (Chemistry (Weinheim an Der Bergstrasse, Germany), 2025).

Structures can show the parent of a compound that is named as a salt. Where two headings read alike, the source gives them in different places.

Assay [1] has as its target T1, soluble CI‐M6P/IGF2R:D1–D15 (Homo sapiens, UniProt P11717).
T1 construct: domains 1–15 (residues AA 41–2304); gp67 signal peptide (X1) (N, cleaved yes); 6‐His‐tag (C); PreScission protease cutting site (C); TwinStrep‐tag (C); made in house; host or cells: Spodoptera frugiperda Sf9 insect cells (baculovirus, pFastBac-1), secreted into the medium
Kind of assay: Reverse saturation fluorescence polarization binding of fluorescent glycopeptide 1. An excerpt: The gene encoding human CI‐M6P/IGF2R domains 1–15 (residues AA 41–2304) fused to an N‐terminal gp67 signal peptide ([…]) and C‐terminal 6‐His‐tag, PreScission protease cutting site, and TwinStrep‐tag in pFastBac‐1 vector was used for bacmid generation in DH10Bac E. coli (Thermo Fisher Scientific). The recombinant bacmid DNA was purified using alkaline extraction and transfected using ExpiFectamine‐Sf (Thermo Fisher Scientific) into Spodoptera frugiperda 9 (Sf9) cells. […] Expression of the recombinant protein was assessed by SDS‐PAGE and Western Blot analysis. […]
We employed a fluorescence polarization (FP) binding assay to assess the binding affinity of the tested compounds for a soluble CI‐M6P/IGF2R ectodomain construct. […] Upon binding to the CI‐M6P/IGF2R protein, the probe's rotation slows, resulting in increased fluorescence polarization. This shift is quantified as anisotropy (or polarization), which reflects the ratio of bound to free probe, enabling binding affinity estimation without phase separation.^[ [26] ^] […]
We first analyzed the interaction between soluble CI‐M6P/IGF2R:D1–D15 and the fluorescent probe (glycopeptide 1) using a reverse saturation binding assay in solution. […]

For assay [2], the target named is T2, CI‐M6P/IGF2R:D1–D15 (Homo sapiens, UniProt P11717).
T2 construct: domains 1–15 (residues AA 41–2304); gp67 signal peptide (X1) (N, cleaved yes); 6‐His‐tag (C); PreScission protease cutting site (C); TwinStrep‐tag (C); made in house; host or cells: Spodoptera frugiperda Sf9 insect cells (baculovirus, pFastBac-1), secreted into the medium
Put plainly: Competitive fluorescence polarization assay (displacement of fluorescent glycopeptide 1). As to conditions: for Potency (relative binding potency): (IC50 of compound 2 / IC50 of compound) × 100. The format is binding. As for the experimental part:
The recombinant bacmid DNA was purified using alkaline extraction and transfected using ExpiFectamine‐Sf (Thermo Fisher Scientific) into Spodoptera frugiperda 9 (Sf9) cells. The first generation of recombinant baculovirus was harvested after 5 days post‐transfection and amplified in subsequent shaking cultures of Sf9 in SF‐900 II serum‐free media (Thermo Fisher Scientific) at 27 °C and 130 rpm at a density of 2 × 10^6 cells/ml. Media containing viral particles were harvested after four days, and the amplification step was repeated to obtain high‐titer P2 stock, which was then used in large‐scale expression. […] The column was washed with a buffer containing 100 mM Tris‐HCl and 150 mM NaCl (pH 8.0), and the recombinant protein was eluted using the same buffer supplemented with 50 mM biotin. Expression of the recombinant protein was assessed by SDS‐PAGE and Western Blot analysis. Folding was checked by a competitive binding assay with radioactively labeled IGF2 (a natural ligand of IGF2R).^[ [25] ^]
We employed a fluorescence polarization (FP) binding assay to assess the binding affinity of the tested compounds for a soluble CI‐M6P/IGF2R ectodomain construct. This method monitors the rotational speed of a fluorescent probe—specifically, a fluorescein‐labeled glycopeptide 1. Upon binding to the CI‐M6P/IGF2R protein, the probe's rotation slows, resulting in increased fluorescence polarization. This shift is quantified as anisotropy (or polarization), which reflects the ratio of bound to free probe, enabling binding affinity estimation without phase separation.^[ [26] ^]
In all experiments, the compounds were dissolved in water and serially diluted with water in Echo Qualified 384‐Well PP Source Microplates using a BRAVO pipetting station (Agilent, USA). The compounds were then pre‐spotted onto black 384‐well low‐volume round‐bottom plates (Corning, USA) using an Echo 650 liquid handler (Beckman Coulter, USA) to obtain the desired final compound concentrations. Subsequently, 5 µL of the prepared mixture (soluble receptor and glycopeptide 1 in 100 mM Tris/HCl, 150 mM NaCl, pH 8.0) was added using either a MANTIS Liquid Dispenser (Formulatrix, Dubai, United Arab Emirates) or a Clicktip pipette (Thermo Fischer Scientific, USA). The plate was sealed with Duck Tape (Hampton Research USA) to prevent evaporation, shaken for 10 s at 800 rpm, centrifuged to remove bubbles, and then incubated at room temperature.
Next, competitive FP experiments were performed using a procedure analogous to previously reported methods.^[ [27] ^] […] Subsequently, 5 µL of a mixture containing CI‐M6P/IGF2R:D1–D15 (final concentration: 300 nM) and fluorescent glycopeptide 1 (final concentration: 10 nM) was added using a MANTIS Liquid Dispenser. The anisotropy data from the plate reader were plotted against the compound concentration using GraphPad Prism 8.0. A nonlinear regression analysis, “log [Inhibitor] versus response – Variable slope (four parameters),” was used to calculate the IC₅₀ values (the concentration at which half‐maximal inhibition is achieved) for each competition experiment. Relative binding affinities were calculated as (IC₅₀ of compound 2 / IC₅₀ of each compound) × 100 (%).
A general note: Fluorescence polarisation rises when a labelled molecule tumbles more slowly, as on binding a larger partner.

The target of assay [3] is CI‐M6P/IGF2R. Details: method as in PMID 3003148. As to conditions: monomeric M6P; cited from earlier work.
Where [4] appears, read: receptor 300 nM, glycopeptide 1 10 nM, pH 8.0, mean of two independent measurements in triplicate ± S.D., read-out: IC50.
Where [5] appears, read: receptor 300 nM, glycopeptide 1 10 nM, pH 8.0, mean of two independent measurements in triplicate ± S.D.

On to `NCCCC[C@H](NC(=O)[C@H](Cc1cn(CCO[C@H]2O[C@H](CCP(=O)(O)O)[C@@H](O)[C@H](O)[C@@H]2O)nn1)NC(=O)[C@H](CO)NC(=O)[C@H](Cc1cn(CCO[C@H]2O[C@H](CCP(=O)(O)O)[C@@H](O)[C@H](O)[C@@H]2O)nn1)NC(=O)[C@H](CCCCN)NC(=O)[C@H](Cc1cn(CCO[C@H]2O[C@H](CCP(=O)(O)O)[C@@H](O)[C@H](O)[C@@H]2O)nn1)NC(=O)[C@H](CO)NC(=O)[C@H](Cc1cn(CCO[C@H]2O[C@H](CCP(=O)(O)O)[C@@H](O)[C@H](O)[C@@H]2O)nn1)NC(=O)[C@H](CCCCN)NC(=O)[C@H](Cc1cn(CCO[C@H]2O[C@H](CCP(=O)(O)O)[C@@H](O)[C@H](O)[C@@H]2O)nn1)NC(=O)[C@H](CO)NC(=O)CNC(=O)c1ccc2c(c1)C(=O)OC21c2ccc(O)cc2Oc2cc(O)ccc21)C(N)=O` [Compound 1], for which, in assay [1] (glycopeptide 1 10 nM titrated with receptor 0-1500 nM, pH 8.0, read-out: dissociation constant (Kd)), the Kd was approximately 400 nM. The “cooperativity coefficient (n), Hill koef” value in assay [1] (specific binding with Hill slope, glycopeptide 1 10 nM) was −2.35. Consider `CC(=O)N[C@@H](Cc1c[nH]c2ccccc12)C(=O)N[C@@H](Cc1ccccc1)C(=O)NCC(=O)N[C@@H](CO)C(=O)N[C@@H](Cc1cn(CCO[C@H]2O[C@H](CCP(=O)(O)O)[C@@H](O)[C@H](O)[C@@H]2O)nn1)C(=O)N[C@@H](CCCCN)C(=O)N[C@@H](Cc1cn(CCO[C@H]2O[C@H](CCP(=O)(O)O)[C@@H](O)[C@H](O)[C@@H]2O)nn1)C(=O)N[C@@H](CO)C(=O)N[C@@H](Cc1cn(CCO[C@H]2O[C@H](CCP(=O)(O)O)[C@@H](O)[C@H](O)[C@@H]2O)nn1)C(=O)N[C@@H](CCCCN)C(=O)N[C@@H](Cc1cn(CCO[C@H]2O[C@H](CCP(=O)(O)O)[C@@H](O)[C@H](O)[C@@H]2O)nn1)C(=O)N[C@@H](CO)C(=O)N[C@@H](Cc1cn(CCO[C@H]2O[C@H](CCP(=O)(O)O)[C@@H](O)[C@H](O)[C@@H]2O)nn1)C(=O)N[C@@H](CCCCN)C(N)=O` [Compound 2], for which the “Potency (relative binding potency)” value in assay [2] came out at 100.0%. In addition, in assay [2] (setting [4]), the IC50 turned out to be 480 ± 110 nM.

Turning to `NCCCC[C@H](NC(=O)[C@H](Cc1cn(CCO[C@H]2O[C@H](CCP(=O)(O)O)[C@@H](O)[C@H](O)[C@@H]2O)nn1)NC(=O)[C@H](Cc1c[nH]c2ccccc12)NC(=O)[C@@H](N)Cc1cn(CCO[C@H]2O[C@H](CCP(=O)(O)O)[C@@H](O)[C@H](O)[C@@H]2O)nn1)C(=O)N[C@@H](Cc1cn(CCO[C@H]2O[C@H](CCP(=O)(O)O)[C@@H](O)[C@H](O)[C@@H]2O)nn1)C(N)=O` [Compound 3], in assay [2], the IC50 was found to be 490 ± 40 nM. For the molecule `CC(=O)NCCCC[C@H](NC(=O)[C@H](Cc1cn(CCO[C@H]2O[C@H](CCP(=O)(O)O)[C@@H](O)[C@H](O)[C@@H]2O)nn1)NC(=O)[C@H](Cc1c[nH]c2ccccc12)NC(=O)[C@H](Cc1cn(CCO[C@H]2O[C@H](CCP(=O)(O)O)[C@@H](O)[C@H](O)[C@@H]2O)nn1)NC(C)=O)C(=O)N[C@@H](Cc1cn(CCO[C@H]2O[C@H](CCP(=O)(O)O)[C@@H](O)[C@H](O)[C@@H]2O)nn1)C(N)=O` [Compound 4], in assay [2], the IC50 was found to be 490 ± 70 nM. `NC(=O)[C@H](Cc1cn(CCO[C@H]2O[C@H](CCP(=O)(O)O)[C@@H](O)[C@H](O)[C@@H]2O)nn1)NC(=O)[C@H](Cc1c[nH]c2ccccc12)NC(=O)[C@@H](N)Cc1cn(CCO[C@H]2O[C@H](CCP(=O)(O)O)[C@@H](O)[C@H](O)[C@@H]2O)nn1` [Compound 5]: in assay [2] (setting [4]), the IC50 was 480 ± 100 nM. Same read-out and setting: under `CC(=O)N[C@@H](Cc1cn(CCO[C@H]2O[C@H](CCP(=O)(O)O)[C@@H](O)[C@H](O)[C@@H]2O)nn1)C(=O)N[C@@H](Cc1c[nH]c2ccccc12)C(=O)N[C@@H](Cc1cn(CCO[C@H]2O[C@H](CCP(=O)(O)O)[C@@H](O)[C@H](O)[C@@H]2O)nn1)C(N)=O` [Compound 6] stands 660 ± 900 nM.

Regarding `CO[C@H]1O[C@H](CCP(=O)(O)O)[C@@H](O)[C@H](O)[C@@H]1O` [Compound 8, Methyl 6-deoxy-6-phosphonomethyl-α-D-mannopyranoside bis(triethylammonium) salt], in assay [2], the “Potency (relative binding potency)” value turned out to be 4.1%. Moreover, the IC50 in assay [2] (values used for comparison with calculations, read-out: experimental IC50 (as listed in Tables S1-S3)) is 11500 nM.

In the case of `CO[C@H]1O[C@H](CP(=O)(O)O)[C@@H](O)[C@H](O)[C@@H]1O` [Compound 9], the “Potency (relative binding potency)” value in assay [2] amounted to 0.35%. Also, the IC50 in assay [2] (setting [4]) worked out at 137000 ± 2000 nM. Turning to `CO[C@H]1O[C@H](CCc2nnn[nH]2)[C@@H](O)[C@H](O)[C@@H]1O` [Compound 10], the 50% inhibitory concentration (IC50) result in assay [2] (setting [5]) is “did not bind and unmeasurably low and n.b”. In the case of `CO[C@H]1O[C@H](CCC(=O)O)[C@@H](O)[C@H](O)[C@@H]1O` [Compound 11], in assay [2], the “fold reduction in binding affinity compared to native M6P 7” value was “fivefold” and the “Potency (relative binding potency)” value was determined as 0.85%. Moreover, the IC50 in assay [2] (setting [4]) was 56000 ± 12000 nM. For the molecule `CO[C@H]1O[C@H](Cc2nnn[nH]2)[C@@H](O)[C@H](O)[C@@H]1O` [Compound 12], the IC50 result in assay [2] (setting [5]) is “did not bind and unmeasurably low and n.b”. With `O=P(O)(O)CC[C@H]1O[C@H](C/C=C/c2ccc(O)cc2)[C@@H](O)[C@@H](O)[C@@H]1O` [Compound 13], in assay [2], the “fold increase in binding affinity compared to compound 8” value was “almost threefold” and the “Potency (relative binding potency)” value is recorded as 11.3%. Also, in assay [2] (setting [4]), the IC50 was determined as 4200 ± 20 nM. For the molecule mannose‐6‐phosphate [Compound 7], the Kd in assay [3] is approximately 7000 nM.

In general, Kd refers to the equilibrium constant for the complex coming apart. What is called IC50 is the concentration needed to halve the response being measured.
